The target of one data set is IDH1 R132C (Homo sapiens (Human), UniProt O75874, R132C). The data set is described as follows: Biochemical assay for inhibition of mutant IDH1 R132C. The conditions noted are these: tested in triplet. An excerpt:
The present disclosure provides a biochemical assay method for detecting the IDH inhibition and selectivity of the compounds by detecting IDH enzyme activity directly.
Wild-type IDH enzyme could convert NADP^+ to NADPH when it catalyzes the α-KG producing reaction. Mutant IDH enzyme could convert NADPH to NADP^+ when it catalyzes the D-2-HG producing reaction. So the activity of wild-type and mutant IDH1/2 could be measured by monitoring NADPH level change: in the reaction catalyzed by wild-type IDH1/2, the newly generated NADPH is utilized instantly by coupled diaphorase-resazurin reaction to generate resorufin which is fluorescent (at Excitation 544 nm, Emission 590 nm) and thus NADPH is monitored indirectly; while in the reaction catalyzed by mutant IDH1/2, NADPH is directly monitored as it is fluorescent (at Excitation 340 nm, Emission 460 nm). By monitoring the change of NADPH level in the reaction, the enzyme activity could be determined rapidly and efficiently, IC50 of a compound could also be assayed.
The test compounds were prepared into 50 mM stock solutions in DMSO and stored at −20° C. Each test compound stock was further diluted to obtain a 100× stock solution at a concentration of 200 μM, 100 μM, 50 μM, 25 μM, 12.5 jμM, 6.25 μM and 3.125 μM, respectively, for the final use on the day of test.
Inhibition of Mutant IDHJ (R132H or R132C):
Solution A was prepared by combining 1 M Tris-HCl pH7.5 (300 μL), 5 M NaCl (450 μL), 1 M MgCl2 (150 μL), 1 M DTT (15 μL), 20 mg/mL BSA (37.5 μL), 20 mM NADPH (20 μL), and 0.5 mM α-KG (40 μL), followed by adding deionized water to a final volume of 15 mL.
Reaction buffer was prepared by combining 1 M Tris-HCl pH 7.5 (200 μL), 5 M NaCl (300 μL), 1 M MgCl2 (100 μL), 1 M DTT (10 μL) and 20 mg/mL BSA (25 μL), followed by adding deionized water to a final volume of 10 mL.
Solution B was prepared by combining the reaction buffer (5 mL) and […] IDH1-R132H (5.21 μL) or 107 μM IDH1-R132C (4.67 μL).
148 μL Solution A was added into each sample well of a 96-well plate P1, and then 2 μL of the test compound solution at each concentration and 2 μL of DMSO (negative control/blank) were added into individual sample well respectively. 50 μL of Solution B was added into each of the sample wells having test compounds and one sample well having DMSO only, and 50 μL of reaction buffer was added into another sample well having DMSO only, respectively. P1 was put into BioTek Synergy H4 Microplate reader (BioTek Instruments Inc., Winooski, U.S.), and the program was set as follows: 37° C., shake plate 5 seconds, run kinetic mode, total detection time 20 min, detection intervals 40 seconds, detection mode fluorescence (at Excitation 340 nm, Emission 460 nm). The data were exported, the relative enzyme activity and the half-maximal inhibitory concentration (IC50) for the test compound were calculated. Relative enzyme activity was calculated as the absolute value of the slope of the Emission 460 reads of each well plotted against time (which represents the conversion rate of ca-KG to 2-HG through IDH1 modulated utilization of NADPH). The Dose-response curve was drawn and the IC50 was calculated via fitting. The IDH inhibition and selectivity of each test compound can be evaluated according to the effect of the compounds on the IDH enzyme activity.
The IDH inhibition activity of the compounds were assessed according to Test 5 of the Biological evaluation section. The test for mutant IDH1 R132H/R132C inhibition of each compound was carried out in triplet. For IDH1 R132H, the enzyme activity of exemplary Compounds 16, 21, 22, 23, 24 and 31 is plotted as a function of logarithm of the concentration of the compound in FIGS. 8A-8C, 9A-9C, 10A-10C, 11A-11C, 12A-12C and 13A-13C, respectively. […]

Data set [1] can be described thus: Metabolic stability in dog liver microsome. The settings on record: for K: Mean; for microsomal CLint at 1 μM / half-life at 1 μM: microsomes, pH 7.4. The protocol: The liver microsomes of mouse, rat, dog, monkey and human were purchased from Corning Inc., and were stored at −60° C. prior to use. The acetonitrile and NADPH were purchased from Honeywell International Inc. (New Jersey, U.S.) and Roche Inc. (Basel, Swiss).
Reactions were initiated by adding NADPH to a final concentration of 1 mM. The final volume of each reaction mixture was 0.2 ml, and all reactions were performed in duplicate. At each set time point (0, 5, 15, 30 and 60 min), a small aliquot (e.g., 20 μl) was transferred from the reaction system into ice-cold internal standard (IS) containing acetonitrile to quench the reaction and to precipitate the protein. After vortex and centrifuge at 3700 rpm for 10 min, the supernatant was injected into LC-MS/MS for analysis.
In vitro microsomal clearance was estimated based on determination of elimination half-life (T1/2) of compounds disappearance from their initial concentrations. Peak area ratios of each compound (test or control) to IS was calculated. Ln (% Control) versus Incubation Time (min) curve was plotted, and the slope of a linear fitting line was calculated. Drug elimination rate constant k (min^−1), T1/2 (min), and in vitro intrinsic clearance CLint (mL·min^−1·mg^−1 proteins) was calculated according to the following equations: k=−slope T1/2=0.693/k CLint=k/Cprotein where Cprotein (mg·mL^−1) is the microsomal protein concentration in the incubation system. Test 3: Metabolic Stability Assay in Mouse Plasma
In this study, the metabolic stability of the compounds was assessed in mouse, rat, dog, monkey and human liver microsome according to the method disclosed in Test 2 of the Biological evaluation section.
On the technique in general: Liver microsomes are a subcellular fraction often used to study metabolism.

Chain of IDH1 R132C (O75874 whole entry R132C): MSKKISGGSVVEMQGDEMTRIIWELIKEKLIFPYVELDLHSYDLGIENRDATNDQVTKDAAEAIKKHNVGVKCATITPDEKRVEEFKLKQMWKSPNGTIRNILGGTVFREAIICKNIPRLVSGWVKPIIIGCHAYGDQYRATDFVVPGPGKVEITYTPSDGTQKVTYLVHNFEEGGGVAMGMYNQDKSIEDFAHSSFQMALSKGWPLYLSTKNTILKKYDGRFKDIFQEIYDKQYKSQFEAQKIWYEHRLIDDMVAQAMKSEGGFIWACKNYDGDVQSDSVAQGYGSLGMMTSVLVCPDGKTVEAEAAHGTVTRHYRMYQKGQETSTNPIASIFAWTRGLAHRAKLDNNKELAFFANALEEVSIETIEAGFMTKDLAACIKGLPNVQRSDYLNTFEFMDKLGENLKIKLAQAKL

Regarding `CCN1Cc2c(ccnc2N[C@@H](C)c2ccc(Br)cc2)C1=O` [Compound 1, (S)-4-(1-(4-bromophenyl)ethylamino)-2-ethyl-2,3-dihydro-1H-pyrrolo[3,4-c]pyridin-1-one], the half-inhibitory concentration (IC50) on IDH1 R132C is 10 to 15 µM.

With `CCN1Cc2c(ccnc2N[C@@H](C)c2ccc(F)cc2)C1=O` [Compound 2, (S)-2-ethyl-4-(1-(4-fluorophenyl)ethylamino)-2,3-dihydro-1H-pyrrolo[3,4-c]pyridin-1-one], the IC50 on IDH1 R132C is 10 to 15 µM.

Regarding `CCN1Cc2c(ccnc2N[C@@H](C)c2ccc(C)cc2)C1=O` [Compound 3, (S)-2-ethyl-4-(1-p-tolylethylamino)-2,3-dihydro-1H-pyrrolo[3,4-c]pyridin-1-one], the half-inhibitory concentration (IC50) at IDH1 R132C was in the range of 10 to 15 µM.

Take `C[C@H](Nc1nccc2c1CN(C1CC1)C2=O)c1ccccc1` [Compound 4, (S)-2-cyclopropyl-4-(1-phenylethylamino)-2,3-dihydro-1H-pyrrolo[3,4-c]pyridin-1-one]: at IDH1 R132C, the IC50 fell in the range of 10 to 15 µM.

With `CCCCN1Cc2c(ccnc2N[C@@H](C)c2ccccc2)C1=O` [Compound 5, (S)-2-butyl-4-(1-phenylethylamino)-2,3-dihydro-1H-pyrrolo[3,4-c]pyridin-1-one], the 50% inhibitory concentration (IC50) on IDH1 R132C fell in the range of 10 to 15 µM.

As for `C[C@H](Nc1nccc2c1CN(Cc1ccccc1)C2=O)c1ccccc1` [Compound 6, (S)-2-benzyl-4-(1-phenylethylamino)-2,3-dihydro-1H-pyrrolo[3,4-c]pyridin-1-one], the half-maximal inhibitory concentration (IC50) at IDH1 R132C lay within 10 to 15 µM.

For the compound `COc1ccc(CN2Cc3c(ccnc3N[C@@H](C)c3ccccc3)C2=O)cc1` [Compound 7, (S)-2-(4-methoxybenzyl)-4-(1-phenylethylamino)-2,3-dihydro-1H-pyrrolo[3,4-c]pyridin-1-one], the IC50 at IDH1 R132C lay in the range of 10 to 15 µM.

Consider `CC(C)N1Cc2c(ccnc2N[C@@H](C)c2ccccc2)C1=O` [Compound 8, (S)-2-isopropyl-4-(1-phenylethylamino)-2,3-dihydro-1H-pyrrolo[3,4-c]pyridin-1-one], for which the IC50 at IDH1 R132C fell in the range of 10 to 15 µM.

Regarding `COCCN1Cc2c(ccnc2N[C@@H](C)c2ccccc2)C1=O` [Compound 9, (S)-2-(2-methoxyethyl)-4-(1-phenylethylamino)-2,3-dihydro-1H-pyrrolo[3,4-c]pyridin-1-one], the IC50 on IDH1 R132C is 10 to 15 µM.

As to `CCN1Cc2c(ccnc2N[C@@H](C)c2ccccc2)C1=O` [Compound 10, (S)-2-ethyl-4-(1-phenylethylamino)-2,3-dihydro-1H-pyrrolo[3,4-c]pyridin-1-one], the IC50 on IDH1 R132C was 10 to 15 µM.

In the case of `CCN1Cc2c(ccnc2N[C@@H](C)c2ccc(OC)cc2)C1=O` [Compound 11, (S)-2-ethyl-4-(1-(4-methoxyphenyl)ethylamino)-2,3-dihydro-1H-pyrrolo[3,4-c]pyridin-1-one], the concentration for half-maximal inhibition (IC50) at IDH1 R132C is 10 to 15 µM.

Regarding `CCOC(=O)c1ccc([C@H](C)Nc2nccc3c2CN(CC)C3=O)cc1` [Compound 12, (S)-ethyl-4-(1-(2-ethyl-1-oxo-2,3-dihydro-1H-pyrrolo[3,4-c]pyridin-4-ylamino)ethyl)benzoate], the IC50 at IDH1 R132C is 10 to 15 µM.

In the case of `CCN1Cc2c(ccnc2N[C@@H](C)c2ccc(C(=O)Nc3ccccc3)cc2)C1=O` [Compound 13, (S)-4-(1-(2-ethyl-1-oxo-2,3-dihydro-1H-pyrrolo[3,4-c]pyridin-4-ylamino)ethyl)-N-phenylbenzamide], at IDH1 R132C, the IC50 fell in the range of 10 to 15 µM.

For the compound `CCN1Cc2c(ccnc2N[C@@H](C)c2ccc(-c3cn(C)nn3)cc2)C1=O` [Compound 14, (S)-2-ethyl-4-(1-(4-(1-methyl-1H-1,2,3-triazol-4-yl)phenyl)ethylamino)-2,3-dihydro-1H-pyrrolo[3,4-c]pyridin-1-one], the IC50 on IDH1 R132C lay within 10 to 15 µM.

For `CCN1Cc2c(ccnc2N[C@@H](C)c2ccc(Oc3cccc(C)c3)cc2)C1=O` [Compound 15, (S)-2-ethyl-4-((1-(4-(m-tolyloxy)phenyl)ethyl)amino)-2,3-dihydro-1H-pyrrolo[3,4-c]pyridin-1-one], on IDH1 R132C, the IC50 is not above 1.5 µM.

As for `CCN1Cc2c(ccnc2N[C@@H](C)c2ccc(Oc3ccccc3C)cc2)C1=O` [Compound 17, (S)-2-ethyl-4-(1-(4-(o-tolyloxy)phenyl)ethylamino)-2,3-dihydro-1H-pyrrolo [3,4-c]pyridin-1-one], the IC50 at IDH1 R132C was not above 1.5 µM.

As to `CCN1Cc2c(ccnc2N[C@@H](C)c2ccc(Oc3ccccc3)cc2)C1=O` [Compound 18, (S)-2-ethyl-4-(1-(4-phenoxyphenyl)ethylamino)-2,3-dihydro-1H-pyrrolo[3,4-c]pyridin-1-one], at IDH1 R132C, the concentration for half-maximal inhibition (IC50) was not above 1.5 µM.

`CCN1Cc2c(ccnc2N[C@@H](C)c2ccc(Oc3ccc(OC)cc3)cc2)C1=O` [Compound 19, (S)-2-ethyl-4-(1-(4-(4-methoxyphenoxy)phenyl)ethylamino)-2,3-dihydro-1H-pyrrolo[3,4-c]pyridin-1-one]: on IDH1 R132C, the concentration for half-maximal inhibition (IC50) was not above 1.5 µM.

As to `CCN1Cc2c(ccnc2N[C@@H](C)c2ccc(Oc3ccc(F)cc3)cc2)C1=O` [Compound 20, (S)-2-ethyl-4-(1-(4-(4-fluorophenoxy)phenyl)ethylamino)-2,3-dihydro-1H-pyrrolo[3,4-c]pyridin-1-one], the IC50 at IDH1 R132C fell in the range of 1.5 to 10 µM.

Consider `Cc1ncc2n1-c1ccc(Cl)cc1C(c1ccccc1F)=NC2` [Positive control, Midazolam, reference compound], for which the K in data set [1] (dog liver microsome) worked out at 0.140 min⁻¹; in data set [1] (human liver microsome), 0.0612 min⁻¹; in data set [1] (monkey liver microsome) it was 0.211 min⁻¹; in data set [1] (mouse liver microsome), 0.0964 min⁻¹; in data set [1] (rat liver microsome), 0.174 min⁻¹. Besides, the microsomal CLint at 1 μM in data set [1] (dog) was 702 µL/min/mg; in data set [1] (human) it was 306 µL/min/mg; in data set [1] (monkey), 1050 µL/min/mg; in data set [1] (mouse), 482 µL/min/mg; in data set [1] (rat) it was 871 µL/min/mg. In addition, the half-life at 1 μM is 11.3 min in data set [1] (human), 3.29 min in data set [1] (monkey), 7.19 min in data set [1] (mouse) and 3.98 min in data set [1] (rat).

By IC50 is commonly meant the concentration that gives 50% inhibition. As a reminder, the microsomal CLint is a measure of how fast metabolising enzymes remove a compound, apart from limits set by blood flow. For orientation: half-life means the time in which the quantity being followed falls by half.

Source of the values: patent publication US10752626B2, “Iso-citrate dehydrogenase (IDH) inhibitor” (SHANGHAI METON PHARMACEUTICAL CO., LTD, priority 2016, dated 2020).
